From ChEMBL document CHEMBL1201862, “PubChem BioAssay data set” (2004)
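These data come from cells grown in 96-well plates and exposed to compound for 48 hours at five concentrations. The concentration for 50% growth inhibition is given as GI50.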 The source made the active and inactive calls. Rule as the data show it: active = GI50 up to about 1.1 µM and inactive = higher.

What was measured:
Assay in all cases: growth of human tumour cells (NCI), 48 h
[1] = tested on: ACHN
[2] = tested on: BT-549
[3] = tested on: CAKI-1
[4] = tested on: DU-145
[5] = tested on: HL-60
[6] = tested on: HOP-92
[7] = tested on: K562
[8] = tested on: MCF7
[9] = tested on: MDA-N
[10] = tested on: Malme-3M
[11] = tested on: NCI-H226
[12] = tested on: NCI-H23
[13] = tested on: NCI-H522
[14] = tested on: OVCAR-3
[15] = tested on: SK-MEL-28
[16] = tested on: SN12C
[17] = tested on: SR
[18] = tested on: TK-10
[19] = tested on: U-251
[20] = tested on: SNB-78

Structure (SMILES) | GI50 [1] | GI50 [2] | GI50 [3] | GI50 [4] | GI50 [5] | GI50 [6] | GI50 [7] | GI50 [8] | GI50 [9] | GI50 [10] | GI50 [11] | GI50 [12] | GI50 [13] | GI50 [14] | GI50 [15] | GI50 [16] | GI50 [17] | GI50 [18] | GI50 [19] | GI50 [20]
O=C(O)C(CCc1ccccn1)c1ccccc1 (centres undefined) | > 100 µM (inactive) | > 100 µM (inactive) | > 100 µM (inactive) | > 100 µM (inactive) | 1 µM (active) | > 50.4 µM (inactive) | > 100 µM (inactive) | > 100 µM (inactive) | > 100 µM (inactive) | > 100 µM (inactive) | > 100 µM (inactive) | > 100 µM (inactive) | > 100 µM (inactive) | > 100 µM (inactive) | > 100 µM (inactive) | > 100 µM (inactive) | > 100 µM (inactive) | > 100 µM (inactive) | > 100 µM (inactive) | 
Oc1c(Br)c(-c2ccccc2)nc2ccccc12 | 35.8 µM (inactive) | 58.1 µM (inactive) | 6.32 µM (inactive) | > 69.5 µM (inactive) | 12.2 µM (inactive) | 8 µM (inactive) | 1.9 µM (inactive) | 59.2 µM (inactive) | 39.2 µM (inactive) | 53.2 µM (inactive) | 8.47 µM (inactive) | 22.1 µM (inactive) | > 10 µM (inactive) | 50.5 µM (inactive) | 89.1 µM (inactive) | 6.67 µM (inactive) | 29.8 µM (inactive) | 57.8 µM (inactive) | 98.4 µM (inactive) | 
Cc1cc(O)nc(NN2C(Cl)C(=O)C2c2cccc(O)c2)n1 (centres undefined) | 4.61 µM (inactive) |  |  |  | 4.26 µM (inactive) | 4.67 µM (inactive) | 2.7 µM (inactive) |  |  |  |  | 5.73 µM (inactive) |  | 3.14 µM (inactive) | 26.5 µM (inactive) | 6.31 µM (inactive) | 4.11 µM (inactive) | 42.5 µM (inactive) | 3.05 µM (inactive) | 7.43 µM (inactive)
N#Cc1ccccc1NC(=O)C(O)C(O)C(O)C(O)C=O (centres undefined) | > 100 µM (inactive) | > 100 µM (inactive) | > 100 µM (inactive) | > 100 µM (inactive) | > 100 µM (inactive) | > 100 µM (inactive) | > 100 µM (inactive) | > 100 µM (inactive) | > 100 µM (inactive) | > 100 µM (inactive) | > 100 µM (inactive) | > 100 µM (inactive) | > 100 µM (inactive) | > 100 µM (inactive) | > 100 µM (inactive) | > 100 µM (inactive) | > 100 µM (inactive) | > 100 µM (inactive) | > 100 µM (inactive) | 
O=C(O)CCCCCNC(=O)CCC(CN(CC(=O)OCc1ccccc1)CC(=O)OCc1ccccc1)N(CC(=O)OCc1ccccc1)CC(=O)OCc1ccccc1 (centres undefined) | 18.1 µM (inactive) | 18.9 µM (inactive) | 18.3 µM (inactive) | 19.5 µM (inactive) | 15 µM (inactive) | 13.3 µM (inactive) | 12.5 µM (inactive) | 19.4 µM (inactive) | 18.2 µM (inactive) | 19.2 µM (inactive) | 22.9 µM (inactive) | 18.4 µM (inactive) | 19.2 µM (inactive) | 17.3 µM (inactive) | 19 µM (inactive) | 18.4 µM (inactive) | 20.9 µM (inactive) | 16.3 µM (inactive) | 22 µM (inactive) | 
O=C1/C(=C\c2cccc(Oc3ccccc3)c2)S(=O)(=O)C(c2ccccc2)N1c1ccc(Cl)cc1 (centres undefined) | 12.9 µM (inactive) | 22.6 µM (inactive) | 13.2 µM (inactive) | 19.1 µM (inactive) | 13.2 µM (inactive) | 14 µM (inactive) | 10.6 µM (inactive) | 12.6 µM (inactive) | 14.6 µM (inactive) | 18.2 µM (inactive) | 43.1 µM (inactive) | 24.9 µM (inactive) | 15.7 µM (inactive) | 14.4 µM (inactive) | 17.8 µM (inactive) | 15.6 µM (inactive) | 8.2 µM (inactive) | 92.3 µM (inactive) | 16 µM (inactive) | 
CC1=C2C(O)C(C(C)CO)C(O)CC2(C)C(O)CC1 (centres undefined) | > 100 µM (inactive) |  | > 100 µM (inactive) |  | > 100 µM (inactive) | > 100 µM (inactive) |  |  |  | > 100 µM (inactive) | > 100 µM (inactive) |  | > 100 µM (inactive) | > 100 µM (inactive) | > 100 µM (inactive) | > 100 µM (inactive) | > 100 µM (inactive) | > 100 µM (inactive) | > 100 µM (inactive) | > 100 µM (inactive)
O=[N+]([O-])c1cccc(C2=NOC3CCCC23)c1 (centres undefined) | > 100 µM (inactive) |  | < 0.01 µM (active) |  | > 100 µM (inactive) | > 100 µM (inactive) | > 100 µM (inactive) |  |  | > 100 µM (inactive) | > 100 µM (inactive) | > 100 µM (inactive) | > 100 µM (inactive) | > 100 µM (inactive) | > 100 µM (inactive) | > 100 µM (inactive) |  | > 100 µM (inactive) | > 100 µM (inactive) | > 100 µM (inactive)
CCN(CC)C(=S)SS(C)(=O)=O | 16.7 µM (inactive) |  | 22.4 µM (inactive) |  | 5.12 µM (inactive) | 30.6 µM (inactive) | < 0.01 µM (active) |  |  | 26.7 µM (inactive) | 14.8 µM (inactive) | 19.9 µM (inactive) | < 0.01 µM (active) |  |  | 16 µM (inactive) |  | 18.3 µM (inactive) | 17.7 µM (inactive) | 23.7 µM (inactive)
O/N=C1/C(=C/c2ccc(F)cc2)CCCC1C(NO)c1ccc(F)cc1 (centres undefined) | > 100 µM (inactive) |  | 62.7 µM (inactive) |  | 25.1 µM (inactive) |  | 29.1 µM (inactive) |  |  | 26.7 µM (inactive) |  | 16.6 µM (inactive) | 17.5 µM (inactive) | 23.7 µM (inactive) | 25.8 µM (inactive) | 20.8 µM (inactive) |  | 71.4 µM (inactive) | 46.8 µM (inactive) | 67 µM (inactive)
C/C=C/CP(=O)(c1ccccc1)c1ccccc1 | > 100 µM (inactive) |  |  |  | > 100 µM (inactive) |  | > 100 µM (inactive) |  |  | > 100 µM (inactive) | > 100 µM (inactive) | > 100 µM (inactive) | > 100 µM (inactive) | > 100 µM (inactive) | > 100 µM (inactive) | > 100 µM (inactive) | > 100 µM (inactive) | > 100 µM (inactive) | > 100 µM (inactive) | > 100 µM (inactive)
COC(=O)C1=C(C)N(NC(=O)c2ccccc2)C2(O)CCCC(=O)C12C (centres undefined) | > 100 µM (inactive) |  | > 100 µM (inactive) |  |  | > 100 µM (inactive) |  |  |  | > 100 µM (inactive) | 4.37 µM (inactive) | > 100 µM (inactive) | > 100 µM (inactive) | > 100 µM (inactive) | > 100 µM (inactive) | > 100 µM (inactive) |  | > 100 µM (inactive) | > 100 µM (inactive) | > 100 µM (inactive)
O=c1c2ccccc2sc2nc(O)nn12 | > 100 µM (inactive) |  | > 100 µM (inactive) |  | > 100 µM (inactive) | > 100 µM (inactive) | > 100 µM (inactive) |  |  | > 100 µM (inactive) | > 100 µM (inactive) | > 100 µM (inactive) |  | > 100 µM (inactive) | > 100 µM (inactive) | > 100 µM (inactive) | > 100 µM (inactive) | > 100 µM (inactive) | > 100 µM (inactive) | > 100 µM (inactive)
C/C(=C1/N=C(c2cc([N+](=O)[O-])ccc2Cl)N(C2=CC=C(Cl)CC2)C1=O)c1cc2ccccc2oc1=O | 3.93 µM (inactive) |  | 32.7 µM (inactive) |  | 20 µM (inactive) |  | > 100 µM (inactive) |  |  | 28.5 µM (inactive) | 29 µM (inactive) | 14.4 µM (inactive) | 14.4 µM (inactive) | 36.8 µM (inactive) | 26.3 µM (inactive) | 23.4 µM (inactive) | 28.6 µM (inactive) |  | 49.2 µM (inactive) | 47.9 µM (inactive)
COc1nc2[nH]ccc2c(=O)n1C | > 100 µM (inactive) |  | 24.3 µM (inactive) |  | > 100 µM (inactive) | > 100 µM (inactive) | > 100 µM (inactive) |  |  | > 100 µM (inactive) |  | > 100 µM (inactive) |  |  | > 100 µM (inactive) | > 100 µM (inactive) | > 100 µM (inactive) | > 100 µM (inactive) | > 100 µM (inactive) | > 100 µM (inactive)
NC(CO)c1ccccc1 (centres undefined) | > 100 µM (inactive) |  | > 100 µM (inactive) |  | > 100 µM (inactive) | > 100 µM (inactive) |  |  |  | > 100 µM (inactive) | > 100 µM (inactive) | > 10 µM (inactive) | > 100 µM (inactive) | > 100 µM (inactive) | > 100 µM (inactive) |  | > 100 µM (inactive) | > 100 µM (inactive) | > 100 µM (inactive) | > 100 µM (inactive)
Cn1cnc([N+](=O)[O-])c1Sc1nccc(O)n1 | > 100 µM (inactive) |  | > 100 µM (inactive) |  |  | > 100 µM (inactive) | > 100 µM (inactive) |  |  | > 100 µM (inactive) | > 100 µM (inactive) | > 100 µM (inactive) | > 100 µM (inactive) | > 100 µM (inactive) | > 100 µM (inactive) | > 100 µM (inactive) | > 100 µM (inactive) | > 100 µM (inactive) | > 100 µM (inactive) | > 100 µM (inactive)
CC(=O)Nc1c2sscc-2n(C)c1=O [THIOLUTIN] | 0.984 µM (active) | 1.43 µM (inactive) | 1.89 µM (inactive) | 0.634 µM (active) | 0.512 µM (active) | 2.23 µM (inactive) | 1.52 µM (inactive) | 0.63 µM (active) | 1.56 µM (inactive) | 0.787 µM (active) | 1.89 µM (inactive) | 0.853 µM (active) | 1.3 µM (inactive) | 1.82 µM (inactive) | 1.37 µM (inactive) | 1.87 µM (inactive) | 0.235 µM (active) | 2.15 µM (inactive) | 1.12 µM (active) | 
